Assay results published in PubChem BioAssay AID2060483 (Molecular Pharmacology Branch, DTP, NCI, 2025).

Test system: K24384-001-R-PDC complex spheroids, viability
Assay: Anticancer human tumor K24384-001-R-PDC patient-derived pancreatic adenocarcinoma cell line growth inhibition [GQUAD]
Conditions: for IC50: curve of first compound; for viability, T/C: stronger effect = lower value
Excerpt: DNA G-quadruplex Stabilizer Agents in Combinations in Complex Spheroids
A high-throughput screen of multi-cell type tumor spheroids was designed to identify active combinations of DNA G-quadruplex stabilizer agents and targeted small molecules. Complex spheroids include a stromal component modeled by human endothelial cells (HUVEC) and fibroblasts modeled by human mesenchymal stem cells (MSCs). The concentration ranges selected for each drug and investigational agent were based upon clinically achievable concentrations if the clinical Cmax of the agent was known.
Compounds. The drugs and investigational agents: pidnarulex (CX-5461; NSC782164), APTO-253 (NSC789042), BRACO-19 (NSC847499), peposertib (NSC802822), ceralasertib (NSC780249), elimusertib (NSC800525), camonsertib (NSC841442), AZD-1390 (NSC803789), olaparib (NSC753686), talazoparib (NSC767125), ART-558 (NSC835418), sotorasib (NSC818433), MRTX-1133 (NSC836407), SN-38 (NSC673596), topotecan (NSC609699), etoposide (NSC141540), doxorubicin (NSC123127), gemcitabine (NSC613327), 5-fluorouracil (NSC19893), paclitaxel (NSC125973), vemurafenib (NSC761431), panobinostat (NSC761190), R-306465 (JNJ-16241199; NSC773264), adavosertib (NSC754352), TP-3654 (NSC805149), carboplatin (NSC241240), KSQ-4279 (NSC840948), and staurosporine (NSC755774) were obtained from the National Cancer Institute (NCI) Developmental Therapeutics Program Chemical Repository (34). The FDA-approved anticancer drug set is available from the NCI Developmental Therapeutics Program. […] The stock solutions were prepared in dimethyl sulfoxide (DMSO, Sigma-Aldrich, St. Louis, MO, cat. D2650) at 800-fold the tested concentration and stored at -70 degrees C prior to their use. All drugs and investigational agents were tested over a range starting from a high concentration at or near the clinical Cmax and decreasing in half-log increments. If the clinical Cmax for an agent had not been determined, the highest concentration tested was 10 microM.
2.3 Cell Culture. All cells were maintained in an incubator at 37 degrees C and 5% CO2 with 95% humidity. The PDC lines were cultured according to standard operating procedures established by the NCI PDMR. All PDCs were thawed and cultured in Matrigel-coated flasks prepared with a working solution of 1X Ham's F-12 nutrient mix, without supplementation (Invitrogen, cat. 11765054), 100 U/mL penicillin-streptomycin (Invitrogen, cat. 15140122), and 2.5% Matrigel (Corning Inc., cat. 354248) for the first three passages. The 857933-349-R-J2-PDC line was cultured in 6C/Colon 1B media, which includes advanced DMEM/F-12 (Thermo Fisher Scientific, cat. 12634028), 10 mM HEPES (Thermo Fisher Scientific, cat. 15630080), 1X GlutaMAX supplement (Thermo Fisher Scientific, cat. 35050061), 0.1 mg/mL primocin (InvivoGen, cat. ant-pm-2), 10% defined fetal bovine serum, heat inactivated (HyClone Laboratories Inc., cat. SH30070.03HI), 50% L-WRN conditioned media (ATCC, cat. CRL-3276), 1.25 mM N-Acetyl-L-cysteine (Sigma-Aldrich, cat. A9165), 10 mM nicotinamide (Sigma-Aldrich, cat. N0636), 1X B-27 supplement (Thermo Fisher Scientific, cat. 17504044), 1X N-2 supplement (Thermo Fisher Scientific, cat. 17502048), 10 microM Y-27632 dihydrochloride (Tocris Bioscience, cat. 1254), and 50 ng/mL human EGF recombinant protein (Thermo Fisher Scientific, cat. PHG0311). The 485176-168-R4-J1-PDC line was cultured in Panc media, which includes all 6C/Colon 1B media components plus 100 ng/mL human FGF-10 (Thermo Fisher Scientific, cat. 100-26), 500 nM SB-431542 (Selleckchem, cat. S1067), and gastrin (Tocris, cat. 3006).
[…]

[1] = second compound 0.0316 µM, first compound 0.0316 µM
[2] = second compound 0.0316 µM, first compound 0.1 µM
[3] = second compound 0.0316 µM, first compound 0.316 µM
[4] = second compound 0.0316 µM, first compound 1 µM
[5] = second compound 0.0316 µM, first compound 3.16 µM
[6] = second compound 0.0316 µM, first compound 10 µM
[7] = second compound 0.1 µM, first compound 0.0316 µM
[8] = second compound 0.1 µM, first compound 0.1 µM
[9] = second compound 0.1 µM, first compound 0.316 µM
[10] = second compound 0.1 µM, first compound 1 µM
[11] = second compound 0.1 µM, first compound 3.16 µM
[12] = second compound 0.1 µM, first compound 10 µM
[13] = second compound 0.316 µM, first compound 0.0316 µM
[14] = second compound 0.316 µM, first compound 0.1 µM
[15] = second compound 0.316 µM, first compound 0.316 µM
[16] = second compound 0.316 µM, first compound 1 µM
[17] = second compound 0.316 µM, first compound 3.16 µM
[18] = second compound 0.316 µM, first compound 10 µM
[19] = second compound 1 µM, first compound 0.0316 µM
[20] = second compound 1 µM, first compound 0.1 µM
[21] = second compound 1 µM, first compound 0.316 µM
[22] = second compound 1 µM, first compound 1 µM
[23] = second compound 1 µM, first compound 3.16 µM
[24] = second compound 1 µM, first compound 10 µM
[25] = second compound 3.16 µM, first compound 0.0316 µM
[26] = second compound 3.16 µM, first compound 0.1 µM
[27] = second compound 3.16 µM, first compound 0.316 µM
[28] = second compound 3.16 µM, first compound 1 µM
[29] = second compound 3.16 µM, first compound 3.16 µM
[30] = second compound 3.16 µM, first compound 10 µM
[31] = second compound 10 µM, first compound 0.0316 µM
[32] = second compound 10 µM, first compound 0.1 µM
[33] = second compound 10 µM, first compound 0.316 µM
[34] = second compound 10 µM, first compound 1 µM
[35] = second compound 10 µM, first compound 3.16 µM
[36] = second compound 10 µM, first compound 10 µM
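Also: spheroids exposed to compounds for seven days.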

Compound: C=CCn1c(=O)c2cnc(Nc3ccc(N4CCN(C)CC4)cc3)nc2n1-c1cccc(C(C)(C)O)n1 + Cc1cnc(CNC(=O)c2c(=O)c3ccc(N4CCCN(C)CC4)nc3n3c2sc2ccccc23)cn1
- IC50 (second compound 0.0316 µM): 487 nM
- IC50 (second compound 0.1 µM): 350 nM
- IC50 (second compound 0.316 µM): < 31.6 nM
- IC50 (second compound 1 µM): < 31.6 nM
- IC50 (second compound 3.16 µM): < 31.6 nM
- IC50 (second compound 10 µM): < 31.6 nM
- viability, T/C [1]: 63.6%
- viability, T/C [2]: 76.6%
- viability, T/C [3]: 68.1%
- viability, T/C [4]: 18.3%
- viability, T/C [5]: 17.8%
- viability, T/C [6]: 23.2%
- viability, T/C [7]: 53.3%
- viability, T/C [8]: 65.2%
- viability, T/C [9]: 51.4%
- viability, T/C [10]: 27.1%
- viability, T/C [11]: 19.8%
- viability, T/C [12]: 18.1%
- viability, T/C [13]: 45.5%
- viability, T/C [14]: 50.1%
- viability, T/C [15]: 37.1%
- viability, T/C [16]: 26.7%
- viability, T/C [17]: 22.6%
- viability, T/C [18]: 17.5%
- viability, T/C [19]: 30.5%
- viability, T/C [20]: 49.7%
- viability, T/C [21]: 34.9%
- viability, T/C [22]: 36.9%
- viability, T/C [23]: 27.1%
- viability, T/C [24]: 22.9%
- viability, T/C [25]: 36.4%
- viability, T/C [26]: 39.7%
- viability, T/C [27]: 28.1%
- viability, T/C [28]: 31.8%
- viability, T/C [29]: 26%
- viability, T/C [30]: 15.8%
- viability, T/C [31]: 10%
- viability, T/C [32]: 10.6%
- viability, T/C [33]: 18%
- viability, T/C [34]: 6.25%
- viability, T/C [35]: 0.39%
- viability, T/C [36]: 0.2%

Compound: COc1cccc2c1C(=O)c1c(O)c3c(c(O)c1C2=O)CC(O)(C(=O)CO)CC3OC1CC(N)C(O)C(C)O1 (centres undefined) + Cc1cnc(CNC(=O)c2c(=O)c3ccc(N4CCCN(C)CC4)nc3n3c2sc2ccccc23)cn1
- IC50 (second compound 0.0316 µM): 280 nM
- IC50 (second compound 0.1 µM): 167 nM
- IC50 (second compound 0.316 µM): 85.2 nM
- IC50 (second compound 1 µM): < 31.6 nM
- IC50 (second compound 3.16 µM): < 31.6 nM
- IC50 (second compound 10 µM): < 31.6 nM
- viability, T/C [1]: 74.3%
- viability, T/C [2]: 62.1%
- viability, T/C [3]: 50.3%
- viability, T/C [4]: 17.6%
- viability, T/C [5]: 5.43%
- viability, T/C [6]: 5.41%
- viability, T/C [7]: 71.2%
- viability, T/C [8]: 55%
- viability, T/C [9]: 42.7%
- viability, T/C [10]: 18.8%
- viability, T/C [11]: 6.08%
- viability, T/C [12]: 5.63%
- viability, T/C [13]: 58.2%
- viability, T/C [14]: 48%
- viability, T/C [15]: 33.3%
- viability, T/C [16]: 20.6%
- viability, T/C [17]: 4.64%
- viability, T/C [18]: 6.62%
- viability, T/C [19]: 35.4%
- viability, T/C [20]: 46.6%
- viability, T/C [21]: 35.1%
- viability, T/C [22]: 19.4%
- viability, T/C [23]: 2.42%
- viability, T/C [24]: 3.74%
- viability, T/C [25]: 40%
- viability, T/C [26]: 44.3%
- viability, T/C [27]: 36.1%
- viability, T/C [28]: 18.7%
- viability, T/C [29]: 0.26%
- viability, T/C [30]: 1.49%
- viability, T/C [31]: 33.3%
- viability, T/C [32]: 25.9%
- viability, T/C [33]: 24.4%
- viability, T/C [34]: 0.41%
- viability, T/C [35]: 0.26%
- viability, T/C [36]: 0.2%
